The values that follow come from ChEMBL document CHEMBL3045680, “Synthesis and Herbicidal Activity of 4-Thiazolone Derivatives and Their Effect on Plant Secretory Pathway” (J Pestic Sci, 2003).

Series [1] has as its system Schoenoplectiella juncoides. In words: Post-emergence herbicidal activity against Schoenoplectiella juncoides assessed as weed killing at 2 kg ai/ha measured 30 days after compound treatment under green house conditions. The format is functional.
Series [2] relates to Echinochloa oryzicola. In words: Pre-emergence herbicidal activity against Echinochloa oryzicola assessed as weed killing at 2 kg ai/ha measured 30 days after compound treatment under green house conditions. The format is functional.
Series [3] deals with Echinochloa oryzicola. In words: Post-emergence herbicidal activity against Echinochloa oryzicola assessed as weed killing at 2 kg ai/ha measured 30 days after compound treatment under green house conditions. The format is functional.
For series [4], the system named is Schoenoplectiella juncoides. In words: Pre-emergence herbicidal activity against Schoenoplectiella juncoides assessed as weed killing at 2 kg ai/ha measured 30 days after compound treatment under green house conditions. The format is functional.
Series [5] has as its system Echinochloa oryzicola. Put plainly: Post-emergence herbicidal activity against Echinochloa oryzicola assessed as weed killing at 0.5 kg ai/ha measured 30 days after compound treatment under green house conditions. The series is classed as functional.
The test system of the next series is Oryza sativa. Put plainly: Post-emergence phytotoxicity against Oryza sativa (rice) plants exposed to compound applied on surface of water 7 days after transplantation assessed as plant killing at 0.5 kg ai/ha measured 3 weeks after compound treatment under green house conditions. The series is classed as organism-based. The settings on record: other, 504 h.

The subject of series [6] is Echinochloa oryzicola. Put plainly: Inhibition of root growth of Echinochloa oryzicola seedlings exposed to 10 uM compound 3 days after sowing measured after 24 to 72 hr days post compound treatment. The series is classed as functional, organism-based.
The next series has as its system Cyperus serotinus. In words: Herbicidal activity against Cyperus serotinus assessed as compound application rate causing complete weed control measured 30 days after compound treatment under green house conditions. The series is classed as functional.
The next series concerns Pontederia vaginalis. Put plainly: Herbicidal activity against Monochoria vaginalis assessed as compound application rate causing complete weed control measured 30 days after compound treatment under green house conditions. The format is functional.
Series [7] relates to Echinochloa oryzicola. Put plainly: Induction of plant secretory pathway perturbations in Echinochloa oryzicola seedlings exposed to 10 uM compound 3 days after sowing assessed as induction of accumulation of dense vesicles around root tip golgi apparatus measured after 4 hr days post compound treatment by electron microscopy. The series is classed as functional, organism-based.

Series [8] concerns Echinochloa oryzicola. Put plainly: Inhibition of shoot growth of Echinochloa oryzicola seedlings exposed to 10 uM compound immediately after sowing measured after 2 days post compound treatment. The format is functional, organism-based.
For series [9], the system named is Echinochloa oryzicola. Put plainly: Induction of plant secretory pathway perturbations in Echinochloa oryzicola seedlings root tips area exposed to 10 uM compound 3 days after sowing assessed as induction of vesicles accumulation at plasma membrane-cell wall interface measured after 8 hr days post compound treatment by electron microscopy. The format is functional, organism-based.

For a further series, the system named is Rotala indica. Put plainly: Herbicidal activity against Rotala indica assessed as compound application rate causing complete weed control measured 30 days after compound treatment under green house conditions. The format is functional.
Series [10] deals with Echinochloa oryzicola. Put plainly: Induction of plant secretory pathway perturbations in Echinochloa oryzicola seedlings exposed to 10 uM compound 3 days after sowing assessed as induction of morphological changes in root tip golgi apparatus measured after 4 hr days post compound treatment by electron microscopy. The format is functional, organism-based.
Series [11] concerns Echinochloa oryzicola. Put plainly: Induction of plant secretory pathway perturbations in Echinochloa oryzicola seedlings exposed to 10 uM compound 3 days after sowing assessed as induction of cytological changes in root apical tip area measured after 4 to 8 hr days post compound treatment by electron microscopy. The format is functional, organism-based.
Series [12] concerns Echinochloa oryzicola. In words: Inhibition of shoot growth of Echinochloa oryzicola seedlings exposed to 10 uM compound 3 days after sowing measured after 24 to 72 hr days post compound treatment. The format is functional, organism-based.
Series [13] has as its system Echinochloa oryzicola. Put plainly: Induction of plant secretory pathway perturbations in Echinochloa oryzicola seedlings root tips area exposed to 10 uM compound 3 days after sowing assessed as induction of vesicles accumulation at plasma membrane-cell wall interface measured after 4 hr days post compound treatment by electron microscopy. The format is functional, organism-based.

Another series has as its system Lindernia procumbens. Put plainly: Herbicidal activity against Lindernia procumbens assessed as compound application rate causing complete weed control measured 30 days after compound treatment under green house conditions. The format is functional.
Series [14] has as its system Echinochloa oryzicola. Put plainly: Induction of necrotic symptoms in root tip of Echinochloa oryzicola seedlings exposed to 10 uM compound measured after 24 to 72 hr days post compound treatment. The format is functional, organism-based.
Series [15] relates to Echinochloa oryzicola. In words: Induction of plant secretory pathway perturbations in Echinochloa oryzicola seedlings root tips area exposed to 10 uM compound 3 days after sowing assessed as induction of low electron dense area at membrane-cell wall interface measured after 4 hr days post compound treatment by electron microscopy. The series is classed as functional, organism-based.

The subject of series [16] is Echinochloa oryzicola. In words: Induction of plant secretory pathway perturbations in Echinochloa oryzicola seedlings root tips area exposed to 10 uM compound 3 days after sowing assessed as induction of obscuring of cell wall measured after 4 hr days post compound treatment by electron microscopy. The format is functional, organism-based.
The test system of series [17] is Echinochloa oryzicola. In words: Induction of plant secretory pathway perturbations in Echinochloa oryzicola seedlings root tips area exposed to 10 uM compound 3 days after sowing assessed as induction of endoplasmic reticulum swellings measured after 4 hr days post compound treatment by electron microscopy. The format is functional, organism-based.
Series [18] relates to Echinochloa oryzicola. In words: Induction of plant secretory pathway perturbations in Echinochloa oryzicola seedlings root tips area exposed to 10 uM compound 3 days after sowing assessed as induction of curved cell wall membrane-cell wall interface measured after 4 hr days post compound treatment by electron microscopy. The format is functional, organism-based.
Series [19] deals with Schoenoplectiella juncoides. In words: Herbicidal activity against Schoenoplectiella juncoides assessed as compound application rate causing complete weed control measured 30 days after compound treatment under green house conditions. The format is functional.
The test system of series [20] is Echinochloa oryzicola. Put plainly: Inhibition of root growth of Echinochloa oryzicola seedlings exposed to 10 uM compound immediately after sowing measured after 3 days post compound treatment. The series is classed as functional, organism-based.
For series [21], the system named is Echinochloa oryzicola. Put plainly: Herbicidal activity against Echinochloa oryzicola assessed as compound application rate causing complete weed control measured 30 days after compound treatment under green house conditions. The series is classed as functional.
Series [22] relates to Echinochloa oryzicola. In words: Induction of plant secretory pathway perturbations in Echinochloa oryzicola seedlings root tips area exposed to 10 uM compound 3 days after sowing assessed as induction of curved cell wall membrane-cell wall interface measured after 8 hr days post compound treatment by electron microscopy. The format is functional, organism-based.

Active and inactive are the calls of the source. The calls are words filed in the database; no cut-off is given here.

For `CC1(C)SC(N2CCCc3ccccc32)=NC1=O`, the Activity in series [1] came out at 60%; in the series with Echinochloa oryzicola [2], 90%; in the series with Echinochloa oryzicola [3], 90%; in series [4], 90%.
Consider `CN(Cc1ccccc1)C1=NC(=O)C(C)(C)S1`, for which the Activity in series [1] is on record as 0%; in the series with Echinochloa oryzicola [2], 20%; with Echinochloa oryzicola [3], 0%; in series [4], 40%.
In the case of `CCC1(C)SC(N(C)c2ccccc2)=NC1=O` (stereo not given), the Activity in [1] was determined as 40%; in the series on Echinochloa oryzicola [2], 80%; in the series on Echinochloa oryzicola [3], 80%; in series [4], 90%.
Regarding `CC1SC(N(C)c2ccccc2)=NC1=O` (stereo not given), the Activity (in [1]; in the series on Echinochloa oryzicola [2]; with Echinochloa oryzicola [3]; in series [4]) was 20% each time.
As for `CCN(CC)C(=O)n1cnc(S(=O)(=O)c2c(C)cc(C)cc2C)n1` [CAFENSTROLE], the Activity in the series with Echinochloa oryzicola [5] amounted to 80%; with Oryza sativa, 20%.
As to `CC1COc2ccccc2N1C1=NC(=O)C(C)(CCCl)S1` (stereo not given), the “growth inhibition (GI)” value in the series on Echinochloa oryzicola [6], with Echinochloa oryzicola [8] and in the series on Echinochloa oryzicola [20] was “Active” throughout. Moreover, the Activity in the series with Cyperus serotinus is 0.25 KgAi/ha; with Pontederia vaginalis, 0.25 KgAi/ha; in the series with Rotala indica it was 0.25 KgAi/ha; in the series with Lindernia procumbens, 0.25 KgAi/ha; with Echinochloa oryzicola [3], 80%; in the series on Echinochloa oryzicola [5], 70%. The Activity was determined as 0% with Oryza sativa, 0.25 KgAi/ha in series [19] and 0.25 KgAi/ha with Echinochloa oryzicola [21]. For the same compound, the result with Echinochloa oryzicola [7], with Echinochloa oryzicola [9], in the series on Echinochloa oryzicola [10], in the series on Echinochloa oryzicola [11], in the series on Echinochloa oryzicola [13] and in the series on Echinochloa oryzicola [14] was Active. Besides, the outcome in the series with Echinochloa oryzicola [15], in the series on Echinochloa oryzicola [16], in the series with Echinochloa oryzicola [17], in the series on Echinochloa oryzicola [18] and in the series on Echinochloa oryzicola [22] was Active. For the same compound, the “growth inhibition (GI)” value with Echinochloa oryzicola [12] is “inactive”.
With `CN(C1=NC(=O)CS1)c1ccccc1`, the Activity (in [1]; with Echinochloa oryzicola [2]; in the series with Echinochloa oryzicola [3]; in series [4]) was 0% each time.
Consider `CC1(C)SC(Nc2ccccc2)=NC1=O`, for which the Activity is recorded as 60% in [1], 80% in the series with Echinochloa oryzicola [2], 60% in the series on Echinochloa oryzicola [3] and 80% in series [4].
Consider `CN(C1=NC(=O)C(C)(CCCl)S1)c1ccccc1` (stereo not given), for which the Activity in [1] was determined as 80%; with Echinochloa oryzicola [2], 80%; in the series on Echinochloa oryzicola [3], 100%; in series [4], 90%.
As for `CCC1(CC)SC(N2c3ccccc3OCC2C)=NC1=O` (stereo not given), the Activity in the series with Echinochloa oryzicola [3] came to 100%; in the series on Echinochloa oryzicola [5], 70%; in the series with Oryza sativa, 0%.
As to `CC1(C)SC(N2CCOc3ccccc32)=NC1=O`, the Activity in series [1] is 40%; with Echinochloa oryzicola [2] it was 90%; in the series on Echinochloa oryzicola [3], 90%; in series [4] it was 80%.
Regarding `CCC1(CCCl)SC(N2c3ccccc3OCC2C)=NC1=O` (stereo not given), the Activity came to 100% in the series with Echinochloa oryzicola [3], 60% with Echinochloa oryzicola [5] and 0% in the series on Oryza sativa.
As for `CCN(C1=NC(=O)C(C)(C)S1)c1ccccc1`, the Activity came to 20% in series [1], 80% in the series on Echinochloa oryzicola [2], 60% in the series on Echinochloa oryzicola [3] and 80% in series [4].
Take `CC1(C)SC(N2CCc3ccccc32)=NC1=O`: the Activity in series [1] is given as 20%; in the series with Echinochloa oryzicola [2] it was 80%; with Echinochloa oryzicola [3], 80%; in series [4] it was 80%.
Regarding `CCCC1(C)SC(N(C)c2ccccc2)=NC1=O` (stereo not given), the Activity in series [1] turned out to be 20%; with Echinochloa oryzicola [2], 80%; with Echinochloa oryzicola [3] it was 70%; in series [4] it was 80%.
As for `CC1COc2ccccc2N1C1=NC(=O)C(C)(C)S1` (stereo not given), the Activity was 80% in series [1]; 100% with Echinochloa oryzicola [2]; 100% in the series with Echinochloa oryzicola [3]; 100% in [4]; 60% with Echinochloa oryzicola [5]; 20% with Oryza sativa.
As for `CCC1(C)SC(N2c3ccccc3OCC2C)=NC1=O` (stereo not given), the Activity in the series with Echinochloa oryzicola [3] was 100%; in the series on Echinochloa oryzicola [5] it was 60%; in the series on Oryza sativa, 0%.
The corresponding values for `CCC1(CCl)SC(N2c3ccccc3OCC2C)=NC1=O` (stereo not given) are 100%, 50% and 20%.
`CCCCN(C)C1=NC(=O)C(C)(C)S1`: the Activity (in [1]; with Echinochloa oryzicola [2]; in the series with Echinochloa oryzicola [3]; in series [4]) was 0% throughout.
For the compound `CN(C1=NC(=O)C(C)(C)S1)c1ccccc1`, the Activity in series [1] came to 60%; in the series with Echinochloa oryzicola [2], 90%; with Echinochloa oryzicola [3], 80%; in [4] it was 80%.
`CC1CCc2ccccc2N1C1=NC(=O)C(C)(C)S1` (stereo not given): the Activity in series [1] stood at 80%; in the series on Echinochloa oryzicola [2], 90%; in the series on Echinochloa oryzicola [3], 90%; in series [4], 90%.
